Measured values reported in ChEMBL document CHEMBL5620412, “Discovery of benzofuran-2-carboxylic acid derivatives as lymphoid tyrosine phosphatase (LYP) inhibitors for cancer immunotherapy” (Eur J Med Chem, 2023).

Molecular target: T1, Tyrosine-protein phosphatase non-receptor type 22 (Homo sapiens, UniProt Q9Y2R2)
T1 sequence (Q9Y2R2 whole entry): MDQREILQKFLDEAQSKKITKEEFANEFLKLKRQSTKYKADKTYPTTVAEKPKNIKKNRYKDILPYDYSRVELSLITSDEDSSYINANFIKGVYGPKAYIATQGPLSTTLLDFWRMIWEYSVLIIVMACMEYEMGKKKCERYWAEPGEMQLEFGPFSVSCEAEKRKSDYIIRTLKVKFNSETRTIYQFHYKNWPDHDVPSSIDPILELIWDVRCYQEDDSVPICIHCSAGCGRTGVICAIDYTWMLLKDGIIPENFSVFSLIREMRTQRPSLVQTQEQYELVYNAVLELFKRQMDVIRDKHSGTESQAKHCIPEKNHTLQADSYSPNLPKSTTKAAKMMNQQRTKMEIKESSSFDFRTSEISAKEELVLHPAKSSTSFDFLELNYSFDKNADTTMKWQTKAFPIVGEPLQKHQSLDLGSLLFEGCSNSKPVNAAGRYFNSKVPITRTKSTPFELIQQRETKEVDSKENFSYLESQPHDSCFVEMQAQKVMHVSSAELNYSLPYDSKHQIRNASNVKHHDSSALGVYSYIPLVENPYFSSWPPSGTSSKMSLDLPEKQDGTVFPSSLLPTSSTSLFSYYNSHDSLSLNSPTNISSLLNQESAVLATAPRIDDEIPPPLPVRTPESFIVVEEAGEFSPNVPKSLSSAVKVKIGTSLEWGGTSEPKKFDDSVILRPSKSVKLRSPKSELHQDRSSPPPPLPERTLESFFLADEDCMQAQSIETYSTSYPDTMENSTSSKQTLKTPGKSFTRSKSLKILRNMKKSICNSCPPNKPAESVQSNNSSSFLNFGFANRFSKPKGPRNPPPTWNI
Experiment: Inhibition of N-terminal His-tagged LYP catalytic domain (1 to 294 residues) (unknown origin) expressed in Escherichia coli BL21 (DE3) cells using pNPP as substrate by absorbance based plate reader analysis

Compound | IC50 [µM]
O=C(O)c1cc2cc(N(Cc3ccc(-c4ccco4)cc3)S(=O)(=O)c3ccc(-c4ccccc4)cc3)ccc2o1 | 7.25
CN(c1ccc2oc(C(=O)O)cc2c1)S(=O)(=O)c1ccc(Cl)c([N+](=O)[O-])c1 | > 20
O=C(O)c1cc2cc(N(Cc3ccc(-c4ccccc4)cc3)S(=O)(=O)c3ccc(Cl)cc3)ccc2o1 | 9.04
O=C(O)c1cc2cc(N(Cc3ccc(-c4ccc(Cl)cc4)cc3)S(=O)(=O)c3ccc(-c4ccccc4)cc3)ccc2o1 | 4.36
O=C(O)c1cc2cc(N(Cc3ccccc3)S(=O)(=O)c3ccc(-c4ccccc4)cc3)ccc2o1 | > 20
O=C(O)c1cc2cc(N(Cc3ccc(-c4ccccc4)cc3)S(=O)(=O)c3ccc(Br)cc3)ccc2o1 | 7.87
O=C(O)c1cc2cc(N(Cc3ccc(Oc4ccccc4)cc3)S(=O)(=O)c3ccc(Cl)c([N+](=O)[O-])c3)ccc2o1 | 5.67
O=C(O)c1cc2cc(N(Cc3ccccc3)S(=O)(=O)c3ccc(Cl)c([N+](=O)[O-])c3)ccc2o1 | > 20
COc1ccc(-c2ccc(CN(c3ccc4oc(C(=O)O)cc4c3)S(=O)(=O)c3ccc(-c4ccccc4)cc3)cc2)cc1 | 5.47
O=C(O)c1cc2cc(N(Cc3ccc(-c4ccccc4)cc3)S(=O)(=O)c3ccc(-c4ccccc4)cc3)ccc2o1 | 5.07
CCCCCCNc1ccc(S(=O)(=O)N(Cc2ccc(-c3ccccc3)cc2)c2ccc3oc(C(=O)O)cc3c2)cc1[N+](=O)[O-] | 5.56
O=C(O)c1cc2cc(N(Cc3ccccc3)S(=O)(=O)c3ccc(NCCOc4ccccc4)c([N+](=O)[O-])c3)ccc2o1 | 10.3
CN(c1ccc2oc(C(=O)O)cc2c1)S(=O)(=O)c1ccc(-c2ccccc2)cc1 | > 20
O=C(O)c1cc2cc(N(Cc3ccc(-c4cccc(Cl)c4Cl)cc3)S(=O)(=O)c3ccc(Cl)c([N+](=O)[O-])c3)ccc2o1 | 5.91
O=C(O)c1cc2cc(N(Cc3ccc(-c4ccccc4)cc3)S(=O)(=O)c3ccc(-c4cccs4)cc3)ccc2o1 | 8.87
O=C(O)c1cc2cc(N(Cc3ccc(-c4ccccc4)cc3)S(=O)(=O)c3ccc(Cl)c([N+](=O)[O-])c3)ccc2o1 | 9.34
O=C(O)c1cc2cc(N(Cc3ccc(-c4ccccc4)cc3)S(=O)(=O)c3ccccc3Cl)ccc2o1 | 15.1

Compound | IC50 [µM]
O=C(O)c1cc2cc(NS(=O)(=O)c3ccc(Cl)cc3)ccc2o1 | > 20
CC(C)CN(c1ccc2oc(C(=O)O)cc2c1)S(=O)(=O)c1ccc(Cl)cc1 | > 20
O=C(O)c1cc2cc(N(Cc3ccc(-c4ccccc4)cc3)S(=O)(=O)c3cccc(Cl)c3)ccc2o1 | > 20
CC(C)CN(c1ccc2oc(C(=O)O)cc2c1)S(=O)(=O)c1ccc(Cl)c([N+](=O)[O-])c1 | > 20
O=C(O)c1cc2cc(N(Cc3ccc(-c4ccccc4)cc3)S(=O)(=O)c3ccc(O)c([N+](=O)[O-])c3)ccc2o1 | 18.7
O=C(O)c1cc2cc(N(Cc3ccccc3)S(=O)(=O)c3ccc(Cl)cc3)ccc2o1 | > 20
O=C(O)c1cc2cc(NS(=O)(=O)c3ccc(-c4ccccc4)cc3)ccc2o1 | > 20
CN(c1ccc2oc(C(=O)O)cc2c1)S(=O)(=O)c1ccc(NCCN2CCOCC2)c([N+](=O)[O-])c1 | > 20
CN(c1ccc2oc(C(=O)O)cc2c1)S(=O)(=O)c1ccc(Cl)cc1 | > 20
O=C(O)c1cc2cc(N(Cc3cccc(Br)c3)S(=O)(=O)c3ccc(NCCOc4ccccc4)c([N+](=O)[O-])c3)ccc2o1 | 6.7
O=C(O)c1cc2cc(NS(=O)(=O)c3ccc(Cl)c([N+](=O)[O-])c3)ccc2o1 | > 20
O=C(O)c1cc2cc(N(Cc3ccc(-c4ccccc4)cc3)S(=O)(=O)c3ccc(Cl)nc3)ccc2o1 | 7.74
O=C(O)c1cc2cc(N(Cc3ccc(-c4ccc(Cl)cc4)cc3)S(=O)(=O)c3ccc(Cl)c([N+](=O)[O-])c3)ccc2o1 | 6.78
O=C(O)c1cc2cc(N(Cc3ccc(-c4ccccc4)cc3)S(=O)(=O)c3cc(Cl)c(F)cc3F)ccc2o1 | 18.7
O=C(O)c1cc2cc(N(Cc3ccc(Oc4ccccc4)cc3)S(=O)(=O)c3ccc(-c4ccccc4)cc3)ccc2o1 | 10.7
CC(C)CN(c1ccc2oc(C(=O)O)cc2c1)S(=O)(=O)c1ccc(-c2ccccc2)cc1 | > 20
CCCCCCNc1ccc(S(=O)(=O)N(Cc2ccccc2)c2ccc3oc(C(=O)O)cc3c2)cc1[N+](=O)[O-] | 5.03
